Experimental findings from patent publication US10670605B2, “Cysteine reactive probes and uses thereof” (The Scripps Research Institute, priority 2015, dated 2020) are described below.

Structures are written as SMILES.

What all share (assay): Competitive isoTOP-ABPP in situ (fragment-treated cells)
Common to all, as to format: cell-based

In assay [1] the target is cysteines in MDA-MB-231 and Ramos cells (Homo sapiens, UniProt Q15003).
The target in assay [2] is T1, cysteines in MDA-MB-231 and Ramos cells (Homo sapiens, UniProt Q8IYQ7).
T1 sequence (Q8IYQ7 1-743): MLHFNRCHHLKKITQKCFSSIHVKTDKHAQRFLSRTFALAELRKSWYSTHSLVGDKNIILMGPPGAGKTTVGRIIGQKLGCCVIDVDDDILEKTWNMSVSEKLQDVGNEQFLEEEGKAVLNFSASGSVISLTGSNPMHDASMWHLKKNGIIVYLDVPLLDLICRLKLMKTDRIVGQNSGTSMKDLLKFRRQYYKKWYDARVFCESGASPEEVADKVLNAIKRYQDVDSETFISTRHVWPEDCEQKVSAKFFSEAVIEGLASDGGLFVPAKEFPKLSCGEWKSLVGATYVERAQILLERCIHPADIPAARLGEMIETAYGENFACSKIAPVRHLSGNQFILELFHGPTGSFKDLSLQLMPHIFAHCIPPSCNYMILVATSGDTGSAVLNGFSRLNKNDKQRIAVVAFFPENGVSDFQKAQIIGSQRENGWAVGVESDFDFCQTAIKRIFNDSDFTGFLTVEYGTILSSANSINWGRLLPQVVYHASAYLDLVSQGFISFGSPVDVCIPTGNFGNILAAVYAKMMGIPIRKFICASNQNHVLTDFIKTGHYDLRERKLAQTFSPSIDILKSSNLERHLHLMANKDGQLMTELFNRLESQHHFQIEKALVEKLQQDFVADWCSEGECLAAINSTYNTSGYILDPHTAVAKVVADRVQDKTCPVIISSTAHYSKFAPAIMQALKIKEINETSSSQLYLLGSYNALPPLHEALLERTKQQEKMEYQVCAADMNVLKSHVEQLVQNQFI
To be noted: 200 μM, insitu, 231.

In assay [3] the target is cysteines in MDA-MB-231 and Ramos cells (Homo sapiens, UniProt Q9ULA0). The settings on record: 200 μM, insitu.
Assay [4] deals with T2, cysteines in MDA-MB-231 and Ramos cells (Homo sapiens, UniProt Q9NXJ5).
T2 sequence (Q9NXJ5 1-209): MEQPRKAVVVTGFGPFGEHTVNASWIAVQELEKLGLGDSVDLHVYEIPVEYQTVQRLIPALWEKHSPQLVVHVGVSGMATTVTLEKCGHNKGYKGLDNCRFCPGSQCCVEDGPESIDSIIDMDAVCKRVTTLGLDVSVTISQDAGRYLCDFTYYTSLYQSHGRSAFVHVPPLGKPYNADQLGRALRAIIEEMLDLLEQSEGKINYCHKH
To be noted: 200 μM, insitu.

The target in assay [5] is T3, cysteines in MDA-MB-231 and Ramos cells (Homo sapiens, UniProt Q9C0I1).
T3 sequence (Q9C0I1 1-747): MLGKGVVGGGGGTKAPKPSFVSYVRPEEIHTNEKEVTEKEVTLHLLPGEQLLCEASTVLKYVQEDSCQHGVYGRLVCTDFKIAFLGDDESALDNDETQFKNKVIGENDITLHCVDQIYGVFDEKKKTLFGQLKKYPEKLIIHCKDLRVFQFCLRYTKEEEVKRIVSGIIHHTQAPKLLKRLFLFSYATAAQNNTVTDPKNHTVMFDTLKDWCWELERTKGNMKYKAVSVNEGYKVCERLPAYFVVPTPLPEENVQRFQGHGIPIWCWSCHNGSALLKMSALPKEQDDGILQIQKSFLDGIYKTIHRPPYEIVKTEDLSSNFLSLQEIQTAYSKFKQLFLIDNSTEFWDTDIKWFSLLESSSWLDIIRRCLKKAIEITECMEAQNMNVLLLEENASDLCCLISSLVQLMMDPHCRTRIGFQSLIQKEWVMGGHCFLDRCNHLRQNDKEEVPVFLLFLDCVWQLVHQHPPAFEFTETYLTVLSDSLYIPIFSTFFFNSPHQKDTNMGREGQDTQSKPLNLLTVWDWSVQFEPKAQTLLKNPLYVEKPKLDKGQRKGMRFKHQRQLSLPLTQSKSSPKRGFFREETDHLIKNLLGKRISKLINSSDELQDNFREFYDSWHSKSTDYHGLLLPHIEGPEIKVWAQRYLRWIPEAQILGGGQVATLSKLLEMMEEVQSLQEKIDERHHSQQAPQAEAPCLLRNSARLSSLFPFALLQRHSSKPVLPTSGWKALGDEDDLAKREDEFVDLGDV
To be noted: 200 μM, insitu.

Assay [6] has as its target T4, cysteines in MDA-MB-231 and Ramos cells (Homo sapiens, UniProt Q9BTE3).
T4 sequence (Q9BTE3 1-642): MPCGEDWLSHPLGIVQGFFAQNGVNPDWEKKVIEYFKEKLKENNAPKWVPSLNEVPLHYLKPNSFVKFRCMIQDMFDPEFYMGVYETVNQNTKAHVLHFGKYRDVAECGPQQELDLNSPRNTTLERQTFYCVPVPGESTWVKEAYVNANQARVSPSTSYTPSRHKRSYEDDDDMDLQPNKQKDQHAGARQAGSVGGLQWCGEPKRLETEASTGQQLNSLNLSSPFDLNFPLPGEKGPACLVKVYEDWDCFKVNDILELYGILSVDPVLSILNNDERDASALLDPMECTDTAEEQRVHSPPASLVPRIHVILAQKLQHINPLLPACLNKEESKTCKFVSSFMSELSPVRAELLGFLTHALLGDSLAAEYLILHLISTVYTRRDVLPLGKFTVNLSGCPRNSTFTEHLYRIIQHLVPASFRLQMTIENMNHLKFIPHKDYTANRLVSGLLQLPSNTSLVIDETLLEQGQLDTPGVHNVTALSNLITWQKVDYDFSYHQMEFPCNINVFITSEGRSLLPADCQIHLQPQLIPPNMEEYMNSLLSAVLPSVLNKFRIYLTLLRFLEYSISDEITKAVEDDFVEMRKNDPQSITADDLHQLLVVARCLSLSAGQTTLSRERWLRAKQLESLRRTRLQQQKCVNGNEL
To be noted: 200 μM, insitu.

cysteines in MDA-MB-231 and Ramos cells (Homo sapiens, UniProt Q15003), sequence (Q15003 whole entry): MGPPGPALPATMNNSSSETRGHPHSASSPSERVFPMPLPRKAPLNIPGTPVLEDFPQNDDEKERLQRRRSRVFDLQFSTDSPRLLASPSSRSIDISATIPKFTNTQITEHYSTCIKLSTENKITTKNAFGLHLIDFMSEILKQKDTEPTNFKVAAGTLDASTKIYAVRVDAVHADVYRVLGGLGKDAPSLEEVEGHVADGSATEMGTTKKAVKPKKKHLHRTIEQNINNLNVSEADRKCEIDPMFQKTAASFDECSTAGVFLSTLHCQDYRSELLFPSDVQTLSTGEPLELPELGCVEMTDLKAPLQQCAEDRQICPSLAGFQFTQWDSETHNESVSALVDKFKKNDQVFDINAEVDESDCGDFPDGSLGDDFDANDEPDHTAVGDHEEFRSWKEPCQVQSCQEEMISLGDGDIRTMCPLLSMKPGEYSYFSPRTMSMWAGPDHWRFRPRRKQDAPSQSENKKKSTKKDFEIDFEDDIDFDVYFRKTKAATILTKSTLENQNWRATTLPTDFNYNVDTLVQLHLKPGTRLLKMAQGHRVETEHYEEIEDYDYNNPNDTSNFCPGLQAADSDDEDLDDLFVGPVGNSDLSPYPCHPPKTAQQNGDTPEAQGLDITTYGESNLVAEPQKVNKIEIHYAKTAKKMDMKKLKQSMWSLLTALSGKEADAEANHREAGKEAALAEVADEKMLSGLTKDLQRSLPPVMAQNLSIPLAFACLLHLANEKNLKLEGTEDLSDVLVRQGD

For the molecule `COc1ccc2c(c1)CCCN2C(=O)CCl` [compound 2], in assay [1] (200 μM, insitu, 231), the “isoTOP-ABPP reactivity Q15003_C418 NCAPH” value is 20.0.

In the case of `COc1ccc(C2CC(c3cccs3)=NN2C(=O)CCl)cc1` (stereo not drawn) [compound 4], the “isoTOP-ABPP reactivity Q15003_C418 NCAPH” value in assay [1] (100 μM in situ 231) is on record as 20.0. Take `COc1cc2c(cc1OC)CN(C(=O)CCl)CC2` [compound 8]: the “isoTOP-ABPP reactivity Q8IYQ7_C324 THNSL1” value in assay [2] stood at 20.0. As for `O=C(CCl)N1CCC(Cc2ccccc2)CC1` [compound 9], in assay [3] (231), the “isoTOP-ABPP reactivity Q9ULA0_C144 DNPEP” value is 2.1. In assay [2], the “isoTOP-ABPP reactivity Q8IYQ7_C324 THNSL1” value is 1.6. Regarding `O=C(CCl)N1CCN(S(=O)(=O)c2ccccc2F)CC1` [compound 10], the “isoTOP-ABPP ratio, cysteine Q9ULA0_C144” value in assay [3] (231) amounted to 5.2. Besides, the “isoTOP-ABPP ratio, cysteine Q9NXJ5_C149” value in assay [4] (ramos) is reported as 11.0. Further, in assay [2], the “isoTOP-ABPP ratio, cysteine Q8IYQ7_C324” value stood at 5.3. As to `Cn1cc(S(=O)(=O)N2CCOCC2)cc1C(=O)NC(=O)CCl` [compound 11], the “isoTOP-ABPP ratio, cysteine Q15003_C418” value in assay [1] (100 μM in situ 231) was 1 .6. As for `O=C(CCl)NC(=O)NC12CC3CC(CC(C3)C1)C2` [compound 12], in assay [5] (231), the “isoTOP-ABPP ratio, cysteine Q9C0I1_C152” value was determined as 20.0. For the same molecule, the “isoTOP-ABPP ratio, cysteine Q9NXJ5_C149” value in assay [4] (231) is 3.9. Take `O=C(CCl)NCCc1c[nH]c2ccccc12` [compound 13]: in assay [5] (ramos), the “isoTOP-ABPP ratio, cysteine Q9C0I1_C152” value was 6.5. Also, the “isoTOP-ABPP ratio, cysteine Q9NXJ5_C149” value in assay [4] (ramos) worked out at 20.0. Besides, the “isoTOP-ABPP ratio, cysteine Q8IYQ7_C324” value in assay [2] amounted to 1.3. `O=C(CCl)NC12CC3CC(CC(C3)C1)C2` [compound 21]: in assay [5] (231), the “isoTOP-ABPP ratio, cysteine Q9C0I1_C152” value is 0.7. Moreover, the “isoTOP-ABPP ratio, cysteine Q8IYQ7_C324” value in assay [2] came out at 2.0. As for `COc1ccccc1OCCNC(=O)CCl` [compound 28], the “isoTOP-ABPP ratio Q9BTE3_C325” value in assay [6] (231) turned out to be 1.0. Regarding `O=C(CCl)N1CCN(CC(=O)N2CCOCC2)CC1` [compound 29], in assay [3] (ramos), the “isoTOP-ABPP ratio Q9ULA0_C144” value is 1.3. Also, the “isoTOP-ABPP ratio Q9C0I1_C152” value in assay [5] (ramos) is 4.6. The “isoTOP-ABPP ratio Q15003_C418” value in assay [1] (200 μM, insitu, ramos) is 1.4.

Turning to `C=CC(=O)N(Cc1cccnc1)c1cc(C(F)(F)F)cc(C(F)(F)F)c1` [compound 31], the “isoTOP-ABPP ratio Q9BTE3_C325” value in assay [6] (231) worked out at 1.9; in assay [6] (ramos), 3.5. For `C=CC(=O)Nc1cc(F)c(N2CCN(C(=O)OC(C)(C)C)CC2)c(F)c1` [compound 38], the “isoTOP-ABPP ratio Q9BTE3_C325” value in assay [6] (231) was found to be 2.2. For the molecule `Cc1ccc(C=C(C#N)C(=O)NCCN2CCOCC2)cc1` [compound 41], the “isoTOP-ABPP ratio Q9ULA0_C144” value in assay [3] (231) was 0.8. The “isoTOP-ABPP ratio Q9BTE3_C325” value in assay [6] (231) was 0.6.

Turning to `CC1CCc2ccccc2N1C(=O)CCl` (stereo not drawn) [compound 45], in assay [1] (200 μM, insitu, 231), the “isoTOP-ABPP ratio Q15003_C418” value came to 20.0. In addition, the “isoTOP-ABPP ratio Q9BTE3_C325” value in assay [6] (231) came out at 20.0.
